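Protocol summary: plate cells (96-well), add compound at 5 concentrations, incubate 48 h, interpolate endpoints linearly. The concentration for full growth arrest is given as TGI.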

The first test relates to A549 NSCLC. The test is described as follows: NCI tumour cell line growth inhibition, 48 h.
With `S=c1sc2c(s1)SCCCCSCCCCSc1sc(=S)sc1SCCCCSCCCCS2`, the TGI was > 100 µM.
As to `O=C1c2c(ccc3c2CCCC3)CC12Cc1ccc3c(c1C2=O)CCCC3`, the TGI is > 100 µM.
Same read-out and setting: for `CCOC(=O)N/N=C(/OCC)c1ccccc1` the value was > 100 µM.
With `COc1cccc(-c2c(C#N)c(N)nc3c2CCS(=O)(=O)c2ccc(C)cc2-3)c1`, the TGI was > 100 µM.
On the same count and under the same terms, as for `COC(=O)C(CC12CC3CC(CC(C3)C1)C2)NC(=O)C(N)CC(=O)O` (centres undefined), the figure is > 100 µM; as for `O=C1C(Cl)=C(OCCCCl)C(=O)c2c(O)ccc(O)c21`, 14.6 µM; as for `CCN(CC)CCCNc1nc(=O)[nH]c(C)c1C(=O)Nc1cccc2cc3ccccc3cc12`, > 100 µM.
Same read-out and setting: as for `COC12OC3(C4OC41)C(C(=O)O[C@H]3CO[Si](C)(C)C(C)(C)C)C2C(=O)Oc1ccccc1` (some centres undefined), the figure is > 100 µM.
Consider `c1ccc([P+](Cc2ccc(C[P+](c3ccccc3)(c3ccccc3)c3ccccc3)cc2)(c2ccccc2)c2ccccc2)cc1`, for which the TGI is > 100 µM.
In the case of `O=C(Cc1ccccc1)NNc1nc(NNC(=O)c2ccncc2)nc(Nc2ccc([N+](=O)[O-])cc2)n1`, the TGI is > 10 µM.
Same read-out and setting: as for `CC(=O)CCCCC(=O)Nc1ccc(CC(NC(=O)OC(C)(C)C)C(=O)NCC(=O)OCc2ccccc2)cc1` (centres undefined), the figure is > 100 µM; as for `C=CCOc1ccc(/C(N=Nc2ccc(Cl)cc2)=N/NC(=O)c2ccccc2)cc1OC`, > 100 µM.
The same measure, in the same setting: for `N#CC12C(=O)N3C(=NC(c4ccccc4)NC3c3ccccc3)C1(C#N)C(c1ccccc1)NC1=C2CCC1` (centres undefined) the value was > 100 µM; for `O=C(/C=C/c1ccccc1)CCN1CCN(CCC(=O)/C=C/c2ccccc2)CC1`, > 100 µM.
As for `C[n+]1c2ccccc2c(C(=O)Nc2ccc(S(=O)(=O)Nc3ccnn3-c3ccccc3)cc2)c2ccccc21`, the TGI is > 100 µM.
Still for that read-out and setting: as for `N=c1oc2c(Cl)cc(Cl)cc2cc1C(=O)Nc1cccc2ccccc12`, the figure is > 100 µM.

For a further test, the system named is CAKI-1 renal. Kind of test: NCI tumour cell line growth inhibition, 48 h.
In the case of `S=c1sc2c(s1)SCCCCSCCCCSc1sc(=S)sc1SCCCCSCCCCS2`, the TGI was > 100 µM.
On to `CCOC(=O)N/N=C(/OCC)c1ccccc1`, for which the TGI was > 100 µM.
Consider `COc1cccc(-c2c(C#N)c(N)nc3c2CCS(=O)(=O)c2ccc(C)cc2-3)c1`, for which the TGI is > 100 µM.
Same read-out and setting: as for `COC(=O)C(CC12CC3CC(CC(C3)C1)C2)NC(=O)C(N)CC(=O)O` (centres undefined), the figure is > 100 µM; as for `O=C1C(Cl)=C(OCCCCl)C(=O)c2c(O)ccc(O)c21`, 2.51 µM; as for `CCN(CC)CCCNc1nc(=O)[nH]c(C)c1C(=O)Nc1cccc2cc3ccccc3cc12`, > 100 µM.
Turning to `COC12OC3(C4OC41)C(C(=O)O[C@H]3CO[Si](C)(C)C(C)(C)C)C2C(=O)Oc1ccccc1` (some centres undefined), the TGI is > 100 µM.
The same measure, in the same setting: as for `c1ccc([P+](Cc2ccc(C[P+](c3ccccc3)(c3ccccc3)c3ccccc3)cc2)(c2ccccc2)c2ccccc2)cc1`, the figure is > 100 µM.
With `O=C(Cc1ccccc1)NNc1nc(NNC(=O)c2ccncc2)nc(Nc2ccc([N+](=O)[O-])cc2)n1`, the TGI is > 10 µM.
The same measure, in the same setting: as for `CC(=O)CCCCC(=O)Nc1ccc(CC(NC(=O)OC(C)(C)C)C(=O)NCC(=O)OCc2ccccc2)cc1` (centres undefined), the figure is 29.1 µM.
For `C=CCOc1ccc(/C(N=Nc2ccc(Cl)cc2)=N/NC(=O)c2ccccc2)cc1OC`, the TGI is > 100 µM.
As for `N#CC12C(=O)N3C(=NC(c4ccccc4)NC3c3ccccc3)C1(C#N)C(c1ccccc1)NC1=C2CCC1` (centres undefined), the TGI is > 100 µM.
Compound `O=C(/C=C/c1ccccc1)CCN1CCN(CCC(=O)/C=C/c2ccccc2)CC1` showed a TGI of 31.9 µM.
On the same count and under the same terms, as for `C[n+]1c2ccccc2c(C(=O)Nc2ccc(S(=O)(=O)Nc3ccnn3-c3ccccc3)cc2)c2ccccc21`, the figure is > 100 µM; as for `N=c1oc2c(Cl)cc(Cl)cc2cc1C(=O)Nc1cccc2ccccc12`, > 67.7 µM.

Another test has as its system CCRF-CEM leukemia. Kind of test: NCI tumour cell line growth inhibition, 48 h.
As to `S=c1sc2c(s1)SCCCCSCCCCSc1sc(=S)sc1SCCCCSCCCCS2`, the TGI is > 100 µM.
Turning to `O=C1c2c(ccc3c2CCCC3)CC12Cc1ccc3c(c1C2=O)CCCC3`, the TGI is > 100 µM.
On the same count and under the same terms, as for `CCOC(=O)N/N=C(/OCC)c1ccccc1`, the figure is > 100 µM; as for `COc1cccc(-c2c(C#N)c(N)nc3c2CCS(=O)(=O)c2ccc(C)cc2-3)c1`, > 100 µM.
With `COC(=O)C(CC12CC3CC(CC(C3)C1)C2)NC(=O)C(N)CC(=O)O` (centres undefined), the TGI is > 100 µM.
In turn, `O=C1C(Cl)=C(OCCCCl)C(=O)c2c(O)ccc(O)c21` registered a TGI of 0.168 µM.
Still for that read-out and setting: for `CCN(CC)CCCNc1nc(=O)[nH]c(C)c1C(=O)Nc1cccc2cc3ccccc3cc12` the value was > 100 µM; for `COC12OC3(C4OC41)C(C(=O)O[C@H]3CO[Si](C)(C)C(C)(C)C)C2C(=O)Oc1ccccc1` (some centres undefined), > 100 µM; for `c1ccc([P+](Cc2ccc(C[P+](c3ccccc3)(c3ccccc3)c3ccccc3)cc2)(c2ccccc2)c2ccccc2)cc1`, > 100 µM.
Consider `O=C(Cc1ccccc1)NNc1nc(NNC(=O)c2ccncc2)nc(Nc2ccc([N+](=O)[O-])cc2)n1`, for which the TGI was > 10 µM.
Same read-out and setting: as for `C=CCOc1ccc(/C(N=Nc2ccc(Cl)cc2)=N/NC(=O)c2ccccc2)cc1OC`, the figure is 86.9 µM; as for `N#CC12C(=O)N3C(=NC(c4ccccc4)NC3c3ccccc3)C1(C#N)C(c1ccccc1)NC1=C2CCC1` (centres undefined), > 100 µM; as for `O=C(/C=C/c1ccccc1)CCN1CCN(CCC(=O)/C=C/c2ccccc2)CC1`, 28.1 µM.
`N=c1oc2c(Cl)cc(Cl)cc2cc1C(=O)Nc1cccc2ccccc12` displayed a TGI of 14.4 µM.

For another test, the system named is COLO 205 colon. The test is described as follows: NCI tumour cell line growth inhibition, 48 h.
As for `S=c1sc2c(s1)SCCCCSCCCCSc1sc(=S)sc1SCCCCSCCCCS2`, the TGI is > 100 µM.
Turning to `CCOC(=O)N/N=C(/OCC)c1ccccc1`, the TGI is > 100 µM.
Still for that read-out and setting: as for `COc1cccc(-c2c(C#N)c(N)nc3c2CCS(=O)(=O)c2ccc(C)cc2-3)c1`, the figure is > 100 µM; as for `COC(=O)C(CC12CC3CC(CC(C3)C1)C2)NC(=O)C(N)CC(=O)O` (centres undefined), > 100 µM; as for `O=C1C(Cl)=C(OCCCCl)C(=O)c2c(O)ccc(O)c21`, 3.09 µM.
Regarding `CCN(CC)CCCNc1nc(=O)[nH]c(C)c1C(=O)Nc1cccc2cc3ccccc3cc12`, the TGI is > 100 µM.
Same read-out and setting: as for `COC12OC3(C4OC41)C(C(=O)O[C@H]3CO[Si](C)(C)C(C)(C)C)C2C(=O)Oc1ccccc1` (some centres undefined), the figure is > 100 µM; as for `c1ccc([P+](Cc2ccc(C[P+](c3ccccc3)(c3ccccc3)c3ccccc3)cc2)(c2ccccc2)c2ccccc2)cc1`, > 100 µM; as for `O=C(Cc1ccccc1)NNc1nc(NNC(=O)c2ccncc2)nc(Nc2ccc([N+](=O)[O-])cc2)n1`, > 10 µM.
Still for that read-out and setting: as for `CC(=O)CCCCC(=O)Nc1ccc(CC(NC(=O)OC(C)(C)C)C(=O)NCC(=O)OCc2ccccc2)cc1` (centres undefined), the figure is 34.7 µM; as for `C=CCOc1ccc(/C(N=Nc2ccc(Cl)cc2)=N/NC(=O)c2ccccc2)cc1OC`, > 100 µM.
For `N#CC12C(=O)N3C(=NC(c4ccccc4)NC3c3ccccc3)C1(C#N)C(c1ccccc1)NC1=C2CCC1` (centres undefined), the TGI is > 100 µM.
On the same count and under the same terms, for `O=C(/C=C/c1ccccc1)CCN1CCN(CCC(=O)/C=C/c2ccccc2)CC1` the value was 31.1 µM; for `C[n+]1c2ccccc2c(C(=O)Nc2ccc(S(=O)(=O)Nc3ccnn3-c3ccccc3)cc2)c2ccccc21`, > 100 µM; for `N=c1oc2c(Cl)cc(Cl)cc2cc1C(=O)Nc1cccc2ccccc12`, > 32.7 µM.

Another test concerns HCC-2998 colon. The test is described as follows: NCI tumour cell line growth inhibition, 48 h.
As to `S=c1sc2c(s1)SCCCCSCCCCSc1sc(=S)sc1SCCCCSCCCCS2`, the TGI was > 100 µM.
The same measure, in the same setting: for `O=C1c2c(ccc3c2CCCC3)CC12Cc1ccc3c(c1C2=O)CCCC3` the value was > 100 µM.
As to `CCOC(=O)N/N=C(/OCC)c1ccccc1`, the TGI is > 100 µM.
`COc1cccc(-c2c(C#N)c(N)nc3c2CCS(=O)(=O)c2ccc(C)cc2-3)c1`: the TGI was > 100 µM.
The same measure, in the same setting: for `COC(=O)C(CC12CC3CC(CC(C3)C1)C2)NC(=O)C(N)CC(=O)O` (centres undefined) the value was > 100 µM; for `O=C1C(Cl)=C(OCCCCl)C(=O)c2c(O)ccc(O)c21`, 30.2 µM.
Still for that read-out and setting: for `CCN(CC)CCCNc1nc(=O)[nH]c(C)c1C(=O)Nc1cccc2cc3ccccc3cc12` the value was > 100 µM.
Consider `COC12OC3(C4OC41)C(C(=O)O[C@H]3CO[Si](C)(C)C(C)(C)C)C2C(=O)Oc1ccccc1` (some centres undefined), for which the TGI is > 100 µM.
On the same count and under the same terms, as for `c1ccc([P+](Cc2ccc(C[P+](c3ccccc3)(c3ccccc3)c3ccccc3)cc2)(c2ccccc2)c2ccccc2)cc1`, the figure is > 100 µM.
